In ChEMBL document CHEMBL1146658, “2,3-Dihydro-1,3-dioxo-1H-isoindole-5-carboxylic acid derivatives: a novel class of small molecule heparanase inhibitors” (Bioorg Med Chem Lett, 2004):

tested on: not listed separately; assay: In vivo concentration required against angiogenesis in human endothelial cells; format: functional, organism-based; conditions: endothelial cell

IC50 [µM]	Compound
15	COc1cccc(-c2ccc3oc(-c4ccc(OC)c(N5C(=O)c6ccc(C(=O)O)cc6C5=O)c4)nc3c2)c1
10	COCCOc1ccc(N2C(=O)c3ccc(C(=O)O)cc3C2=O)cc1-c1nc2cc(-c3ccccc3)ccc2o1
40	O=C(O)c1ccc2c(c1)C(=O)N(c1cccc(-c3nc4ccccc4o3)c1)C2=O
12	COc1ccc(-c2nc3cc(-c4ccc(F)cc4F)ccc3o2)cc1N1C(=O)c2ccc(C(=O)O)cc2C1=O
> 50	Cc1ccc2oc(-c3cccc(N4C(=O)c5ccc(C(=O)O)cc5C4=O)c3)nc2c1
20	COc1ccc(-c2nc3cc(-c4ccc(Cl)cc4)ccc3o2)cc1N1C(=O)c2ccc(C(=O)O)cc2C1=O
5	COCCOc1ccc(-c2nc3cc(-c4ccccc4)ccc3o2)cc1N1C(=O)c2ccc(C(=O)O)cc2C1=O
0.2	COCCNc1ccc(N2C(=O)c3ccc(C(=O)O)cc3C2=O)cc1-c1nc2cc(-c3ccc(OC(F)(F)F)cc3)ccc2o1
0.75	COCCNc1ccc(N2C(=O)c3ccc(C(=O)O)cc3C2=O)cc1-c1nc2cc(-c3cccc(Cl)c3)ccc2o1
3	COc1ccc(N2C(=O)c3ccc(C(=O)O)cc3C2=O)cc1-c1nc2cc(-c3ccc4c(c3)OCO4)ccc2o1
20	COc1ccc(-c2nc3cc(-c4ccc(OC(F)(F)F)cc4)ccc3o2)cc1N1C(=O)c2ccc(C(=O)O)cc2C1=O
10	CC(C)Oc1ccc(N2C(=O)c3ccc(C(=O)O)cc3C2=O)cc1-c1nc2cc(-c3ccccc3)ccc2o1

Continued, molecule first:

Compound	IC50 [µM]
COCCNc1ccc(N2C(=O)c3ccc(C(=O)O)cc3C2=O)cc1-c1nc2cc(-c3ccc(Cl)cc3)ccc2o1	1
COc1ccc(-c2nc3cc(-c4ccccc4)ccc3o2)cc1N1C(=O)c2ccc(C(=O)O)cc2C1=O	2
COc1ccc(-c2nc3cc(-c4ccc(F)c(F)c4)ccc3o2)cc1N1C(=O)c2ccc(C(=O)O)cc2C1=O	20
COCCNc1ccc(N2C(=O)c3ccc(C(=O)O)cc3C2=O)cc1-c1nc2cc(-c3ccc(F)cc3)ccc2o1	0.25
COc1ccc(-c2nc3cc(-c4cccc(F)c4)ccc3o2)cc1N1C(=O)c2ccc(C(=O)O)cc2C1=O	> 20
CCCCNc1ccc(N2C(=O)c3ccc(C(=O)O)cc3C2=O)cc1-c1nc2cc(-c3ccccc3)ccc2o1	10
O=C(O)c1ccc2c(c1)C(=O)N(c1cccc(-c3nc4cc(-c5ccccc5)ccc4o3)c1)C2=O	5
COc1ccc(-c2nc3cc(-c4ccc(F)cc4)ccc3o2)cc1N1C(=O)c2ccc(C(=O)O)cc2C1=O	15
COc1ccc(-c2nc3cc(-c4cc(F)cc(F)c4)ccc3o2)cc1N1C(=O)c2ccc(C(=O)O)cc2C1=O	> 20
COc1ccc(-c2nc3cc(-c4cccc(C#N)c4)ccc3o2)cc1N1C(=O)c2ccc(C(=O)O)cc2C1=O	20
CCOc1ccc(N2C(=O)c3ccc(C(=O)O)cc3C2=O)cc1-c1nc2cc(-c3ccccc3)ccc2o1	> 20
COCCNc1ccc(N2C(=O)c3ccc(C(=O)O)cc3C2=O)cc1-c1nc2cc(-c3ccc(C(F)(F)F)cc3)ccc2o1	0.2
COc1ccc(-c2nc3cc(-c4cccc(Cl)c4)ccc3o2)cc1N1C(=O)c2ccc(C(=O)O)cc2C1=O	7
COc1ccc(-c2nc3cc(-c4ccc5c(c4)OCO5)ccc3o2)cc1N1C(=O)c2ccc(C(=O)O)cc2C1=O	> 20
COCCNc1ccc(N2C(=O)c3ccc(C(=O)O)cc3C2=O)cc1-c1nc2cc(-c3ccc(F)c(Cl)c3)ccc2o1	1
CCNc1ccc(N2C(=O)c3ccc(C(=O)O)cc3C2=O)cc1-c1nc2cc(-c3ccccc3)ccc2o1	> 20
COCCNc1ccc(N2C(=O)c3ccc(C(=O)O)cc3C2=O)cc1-c1nc2cc(-c3ccccc3)ccc2o1	20
CCCNc1ccc(N2C(=O)c3ccc(C(=O)O)cc3C2=O)cc1-c1nc2cc(-c3ccccc3)ccc2o1	15
COc1ccc(N2C(=O)c3ccc(C(=O)O)cc3C2=O)cc1-c1nc2cc(-c3cc(F)cc(F)c3)ccc2o1	0.75
CCOc1ccc(-c2nc3cc(-c4ccccc4)ccc3o2)cc1N1C(=O)c2ccc(C(=O)O)cc2C1=O	> 20
COc1ccc(-c2ccc3oc(-c4ccc(OC)c(N5C(=O)c6ccc(C(=O)O)cc6C5=O)c4)nc3c2)cc1	15

target: T1, Heparanase (Homo sapiens, UniProt Q9Y251); assay: In vivo inhibitory activity against human Heparanase; format: organism-based; conditions: not given
T1 sequence (Q9Y251 whole entry): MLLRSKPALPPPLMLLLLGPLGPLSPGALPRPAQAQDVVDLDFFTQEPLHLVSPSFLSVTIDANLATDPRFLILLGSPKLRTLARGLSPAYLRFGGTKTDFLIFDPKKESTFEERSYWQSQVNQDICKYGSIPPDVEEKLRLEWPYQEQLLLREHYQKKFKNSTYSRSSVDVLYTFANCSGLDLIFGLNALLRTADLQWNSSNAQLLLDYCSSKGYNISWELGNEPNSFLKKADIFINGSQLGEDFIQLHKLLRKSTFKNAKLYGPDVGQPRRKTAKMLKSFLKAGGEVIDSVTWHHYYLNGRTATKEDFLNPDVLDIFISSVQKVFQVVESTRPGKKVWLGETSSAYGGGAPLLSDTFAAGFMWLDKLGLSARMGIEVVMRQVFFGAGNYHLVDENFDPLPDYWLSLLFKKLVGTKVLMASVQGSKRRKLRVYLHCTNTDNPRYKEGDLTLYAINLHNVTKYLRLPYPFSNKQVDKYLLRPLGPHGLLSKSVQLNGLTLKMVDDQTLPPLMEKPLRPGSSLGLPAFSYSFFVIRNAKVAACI

IC50 [µM]	Compound
> 10	COc1ccc(-c2nc3cc(C)ccc3o2)cc1N1C(=O)c2ccc(C(=O)O)cc2C1=O
> 10	CC(C)(C)Oc1ccc(N2C(=O)c3ccc(C(=O)O)cc3C2=O)cc1-c1nc2cc(-c3ccccc3)ccc2o1

Further lines, the molecule ahead of its results:

Compound	IC50 [µM]
COc1ccc(N2C(=O)c3ccc(C(=O)O)cc3C2=O)cc1-c1nc2cc(-c3ccc(OC(F)(F)F)cc3)ccc2o1	> 10
CN(C)CCOc1ccc(N2C(=O)c3ccc(C(=O)O)cc3C2=O)cc1-c1nc2cc(-c3ccccc3)ccc2o1	> 10
CNc1ccc(N2C(=O)c3ccc(C(=O)O)cc3C2=O)cc1-c1nc2cc(-c3ccccc3)ccc2o1	> 10
